Test results published in patent US20060045953A1 (priority 2004, published 2006).

Key:
[1] = biological target: T1, hT1R2/hT1R3 sweet receptor (Homo sapiens, UniProt Q7RTX0+Q8TE23); assay: In vitro hT1R2/hT1R3 sweet taste receptor activation assay (FLIPR, dose response); format: cell-based; settings: Table E, Sweet Enhancer Amides; read-out: Sweet EC50
T1 construct: expressed in transfected cells; host or cells: HEK293 derivative stably expressing Gα15, clone S-9
T1 sequence (Q8TE23 20-839): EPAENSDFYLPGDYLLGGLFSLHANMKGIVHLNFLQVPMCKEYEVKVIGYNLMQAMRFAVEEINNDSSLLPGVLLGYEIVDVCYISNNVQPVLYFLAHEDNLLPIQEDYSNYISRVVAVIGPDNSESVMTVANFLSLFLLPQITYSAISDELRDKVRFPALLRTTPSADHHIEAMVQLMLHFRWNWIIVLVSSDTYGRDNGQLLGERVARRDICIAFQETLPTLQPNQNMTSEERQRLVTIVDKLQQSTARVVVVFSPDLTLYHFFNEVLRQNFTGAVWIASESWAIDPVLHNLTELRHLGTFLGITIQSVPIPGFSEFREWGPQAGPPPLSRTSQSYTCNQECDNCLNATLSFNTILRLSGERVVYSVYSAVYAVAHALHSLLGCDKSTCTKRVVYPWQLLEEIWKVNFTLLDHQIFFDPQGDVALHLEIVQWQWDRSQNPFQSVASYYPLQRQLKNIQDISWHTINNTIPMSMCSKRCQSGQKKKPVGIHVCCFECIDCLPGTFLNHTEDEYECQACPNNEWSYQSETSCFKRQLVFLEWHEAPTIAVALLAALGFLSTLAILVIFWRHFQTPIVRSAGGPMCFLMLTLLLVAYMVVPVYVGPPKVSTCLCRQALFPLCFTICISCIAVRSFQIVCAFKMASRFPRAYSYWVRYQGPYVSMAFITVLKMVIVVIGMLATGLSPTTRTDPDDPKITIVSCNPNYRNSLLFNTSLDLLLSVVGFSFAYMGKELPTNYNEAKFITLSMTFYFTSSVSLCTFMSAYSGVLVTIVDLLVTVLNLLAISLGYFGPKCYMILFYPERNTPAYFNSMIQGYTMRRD
T1 sequence (Q7RTX0 21-852): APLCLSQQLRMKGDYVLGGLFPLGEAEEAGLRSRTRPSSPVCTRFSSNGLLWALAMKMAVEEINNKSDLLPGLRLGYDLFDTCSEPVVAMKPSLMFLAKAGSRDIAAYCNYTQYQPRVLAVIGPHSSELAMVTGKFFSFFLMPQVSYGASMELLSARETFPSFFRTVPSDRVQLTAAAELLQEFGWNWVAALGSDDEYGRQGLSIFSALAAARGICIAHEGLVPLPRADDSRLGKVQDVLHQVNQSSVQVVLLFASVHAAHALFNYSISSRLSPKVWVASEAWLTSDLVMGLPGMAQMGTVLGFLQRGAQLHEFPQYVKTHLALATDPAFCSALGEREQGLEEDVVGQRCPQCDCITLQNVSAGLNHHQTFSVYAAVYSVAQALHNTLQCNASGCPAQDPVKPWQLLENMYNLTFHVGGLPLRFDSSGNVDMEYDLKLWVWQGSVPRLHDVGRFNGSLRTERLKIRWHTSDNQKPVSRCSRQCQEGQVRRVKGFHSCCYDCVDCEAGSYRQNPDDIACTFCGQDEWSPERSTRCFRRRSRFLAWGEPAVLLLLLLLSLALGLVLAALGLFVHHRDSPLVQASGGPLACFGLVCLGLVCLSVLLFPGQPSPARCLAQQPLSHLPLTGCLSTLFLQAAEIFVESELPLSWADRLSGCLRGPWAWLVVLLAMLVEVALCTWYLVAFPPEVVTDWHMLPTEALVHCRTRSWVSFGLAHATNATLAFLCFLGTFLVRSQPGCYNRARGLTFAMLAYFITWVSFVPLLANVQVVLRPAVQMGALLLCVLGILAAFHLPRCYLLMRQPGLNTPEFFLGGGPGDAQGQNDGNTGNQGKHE
Outline: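 Dose-response at 10 concentrations (60 nM–30 µM, duplicates) measured as Fluo-3AM calcium fluorescence on FLIPR in hT1R2/hT1R3 S-9 cells, in D-PBS at room temperature. Responses scaled to 400 mM D-fructose. EC50s from regression with all curve parameters floating.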

[2] = biological target: T2, hT1R1/hT1R3 umami receptor (Homo sapiens, UniProt Q7RTX0+Q7RTX1); assay: Umami taste enhancement assay: shift of the MSG EC50 (EC50 ratio vs. MSG); format: cell-based; settings: Table E
T2 construct: expressed in transfected cells; host or cells: HEK293 derivative stably expressing Gα15, clone I-17, expression induced with mifepristone
T2 sequence (Q7RTX1 21-841): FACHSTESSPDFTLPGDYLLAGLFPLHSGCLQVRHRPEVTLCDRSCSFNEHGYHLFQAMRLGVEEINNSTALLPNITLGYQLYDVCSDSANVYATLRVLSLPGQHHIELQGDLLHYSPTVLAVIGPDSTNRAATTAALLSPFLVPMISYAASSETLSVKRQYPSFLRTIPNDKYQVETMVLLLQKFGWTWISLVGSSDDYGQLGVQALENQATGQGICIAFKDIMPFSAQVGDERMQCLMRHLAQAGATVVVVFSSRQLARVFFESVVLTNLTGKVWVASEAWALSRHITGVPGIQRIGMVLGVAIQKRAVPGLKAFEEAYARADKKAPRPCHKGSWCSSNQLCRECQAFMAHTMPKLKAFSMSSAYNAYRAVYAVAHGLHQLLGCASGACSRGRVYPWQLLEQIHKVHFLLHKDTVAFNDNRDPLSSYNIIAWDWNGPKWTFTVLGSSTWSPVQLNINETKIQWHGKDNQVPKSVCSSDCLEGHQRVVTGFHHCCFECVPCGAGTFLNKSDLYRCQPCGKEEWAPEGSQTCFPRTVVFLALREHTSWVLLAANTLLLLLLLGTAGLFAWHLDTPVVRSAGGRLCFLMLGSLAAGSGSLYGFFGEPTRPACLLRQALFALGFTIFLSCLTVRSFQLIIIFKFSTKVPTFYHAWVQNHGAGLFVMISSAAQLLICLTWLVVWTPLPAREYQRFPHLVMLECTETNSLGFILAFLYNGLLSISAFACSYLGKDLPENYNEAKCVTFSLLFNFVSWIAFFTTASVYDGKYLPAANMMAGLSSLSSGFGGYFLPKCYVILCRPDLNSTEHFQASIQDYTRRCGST
T2 sequence (Q7RTX0 21-852): T1 sequence (Q7RTX0 21-852)
Protocol: A series of measurements of the dose response is run in solutions comprising MSG alone, then a second dose response is run with MSG in combination with predetermined amounts of a candidate compound of Formula (I) at the same time.
Typical compound concentrations tested were 30 μM, 10 μM, 3 μM, 1 μM, 0.3 μM, 0.1 μM and 0.03 μM. The relative efficacy of compounds of Formula (I) at enhancing the receptor was determined by calculating the magnitude of a shift in the EC50 for monosodium glutamate. Enhancement was defined as a ratio (EC50R) corresponding to the EC50 of monosodium glutamate, determined in the absence of the test compound, divided by the EC50 of monosodium glutamate, determined in the presence of the test compound.
Stated alternatively, “EC50 ratio” as compared to MSG is calculated based on the following definitions: EC50 Ratio vs. MSG=EC50 (MSG)/EC50 (MSG+[Compound]) • wherein “[compound]” refers to the concentration of the compound of Formula (I) used to elicit (or enhance or potentiate) the MSG dose response.

O=C(N[C@@H]1CCc2ccccc21)c1cccc(Cl)c1O [Example E127, (R)-3-chloro-N-(2,3-dihydro-1H-inden-1-yl)-2-hydroxybenzamide]
EC50 [1]: 950 nM
Umami EC50 ratio [2]: 2.81 (10 M cpd)
